US20030212109A1, “Pharmaceutical compositions and their use” (priority 2000, published 2003)

Key:
5-HT concentrations [1] = experiment: Brain microdialysis, acute oral administration; 5-HT in perfusate by HPLC with electrochemical detection; assay type: in vivo; settings: brain dialysate
Protocol: (§1) Animals with dialysis probes inserted in brain regions were placed in the dialysis apparatus and the probes perfused with artificial cerebrospinal fluid. Samples of perfusate were collected every 20 minutes after an initial 30 minute washout period. Basal samples were collected for 2 hours before administration of drug or vehicle by the oral route. Further samples were collected for up to 4 hours post drug administration. Samples were analysed for 5-HT by HPLC with electrochemical detection.
Data was expressed as a percentage of a pre-injection control, obtained by averaging the last three samples prior to drug/vehicle administration. Transformed data (natural log of percentages) was analysed by ANOVA with repeated measures.

5-HT concentrations [2] = experiment: Brain microdialysis after chronic (21 day) administration; 5-HT in perfusate; assay type: in vivo; settings: 10 mg/kg, percentage increase over vehicle treated controls
Protocol: as §1
The method differed from that for acute administration in that animals were treated with fluoxetine or vehicle for 21 days prior to placement in the dialysis apparatus. The subsequent manipulations were as described above. The 5-HT concentration in the treated group was expressed as the percentage increase over vehicle treated controls.

Compound: CC1(C)C(=O)N(CCN2CCC(C(=O)c3ccc(F)cc3)CC2)c2ccccc21.Cl [Compound of formula (I), 1-[2-[4-(4-fluorobenzoyl)-1-piperidinyl]ethyl]-1,3-dihydro-3,3-dimethyl-2H-indol-2-one, monohydrochloride]
- % increase in 5-HT concentrations (5-HT concentrations [1]; 10 mg/kg, oral): 110%

Compound: CNCCC(Oc1ccc(C(F)(F)F)cc1)c1ccccc1 (stereo not drawn) [Fluoxetine, N-methyl-3-(p-trifluoromethylphenoxy)-3-phenylpropylamine]
- % increase in 5-HT concentrations (5-HT concentrations [1]; 10 or 20 mg/kg, oral (maximum possible response)): 99%
- % increase in 5-HT concentrations (5-HT concentrations [2]): 184%
